# Entries after “also recorded” stand apart in the source; their conditions may differ.
# Columns and labels:
# [1] = test system: microorganisms; test: Peptide activities: binding, antimicrobial, growth or phenotype altering (Table 8)
# Excerpt: In certain embodiments, peptides described herein can have multiple activities. Thus for example, a peptide can have both binding/targeting activity and antimicrobial activity. Such peptides can be used, e.g., in a chimeric construct, for any or all of these properties. Thus, for example, a peptide designated “B” in Table 8 can be used as a targeting peptide. If it is also designated G or M it can also be used for antimicrobial activity.
# [2] = test system: bacteria; test: Binding of targeting peptides to microorganisms (Table 3); conditions: preferably 1x PBS; for Target(s): microorganism bound by the targeting peptide, binding in aqueous buffers chosen by peptide solubility; for Target(s) (microorganisms bound by the targeting peptide): peptide binding in aqueous buffers that varied depending on peptide solubility
# [3] = test system: microorganisms; test: Morphology, biofilm and growth disruption by peptides (Table 5); assay type: cell-based; set-up: key: A: Peptide aggregates; B: Less hyphal formation; Clumps; Diffuse clumps and small polyps; F: Diffuse growth; H: Thin; I: Growth inhibition; Microcolony formation; Rippled; Small polyps; Thick; W: Halo formation on top, microlonies on bottom
# Excerpt: In certain embodiments peptides that induce alterations in phenotype or other biological activities can also be used as antimicrobial effector moieties.
Substance,Activities [1],Target(s) [2],"Organism, effect ([3]; C. jejuni)","Organism, effect ([3]; E. coli)","Organism, effect ([3]; E. faecalis)","Organism, effect ([3]; MRSA)","Organism, effect ([3]; S. epidermidis)","Organism, effect ([3]; S. pneumoniae)",Target(s) (microorganisms bound by the targeting peptide) [2],"Organism, effect (morphology, biofilm and growth disruption) ([3]; C. jejuni)","Organism, effect (morphology, biofilm and growth disruption) ([3]; E. faecalis)","Organism, effect (morphology, biofilm and growth disruption) ([3]; MRSA)","Organism, effect (morphology, biofilm and growth disruption) ([3]; S. epidermidis)","Organism, effect (morphology, biofilm and growth disruption) ([3]; S. pneumoniae)","Organism, effect (morphology, biofilm and growth disruption) ([3]; E. coli)"
PF-363 (SMLSVTVMCLMHASVAANQAMEKKV; Peptide with targeting and/or antimicrobial activity),G B,B. subtilis; also recorded: E. coli; also recorded: P. aeruginosa; also recorded: C. albicans; also recorded: S. pneumoniae; also recorded: E. faecalis,C. jejuni (D),E. coli (C),E. faecalis (D),MRSA (H),S. epidermidis (S),S. pneumoniae (R),–,–,–,–,–,–,–
PF-369 (MSEAVNLLRGARYSQRYAKNQVPYEVIIEK; Peptide with targeting and/or antimicrobial activity),G B,B. subtilis; also recorded: B. fragilis; also recorded: E. coli; also recorded: P. aeruginosa; also recorded: C. albicans; also recorded: S. pneumoniae; also recorded: C. jeikeium; also recorded: C. jejuni,–,E. coli (R),E. faecalis (C),MRSA (H),S. epidermidis (S),–,–,–,–,–,–,–,–
PF-370 (VIFLHKESGNLKEIFY; Peptide with targeting and/or antimicrobial activity),G B,S. epidermidis; also recorded: E. coli; also recorded: P. aeruginosa; also recorded: E. faecalis; also recorded: C. jejuni,–,E. coli (R),–,MRSA (C),S. epidermidis (C),–,–,–,–,–,–,–,–
PF-373 (HFYLLFER; Peptide with targeting and/or antimicrobial activity),G B,S. epidermidis and E. coli and P. aeruginosa and C. albicans and MRSA and E. faecalis and C. jejuni,–,–,–,MRSA (M),S. epidermidis (M),–,–,–,–,–,–,–,–
PF-378 (ESAKSNLNFLMQEEWALFLLL; Peptide with targeting and/or antimicrobial activity),G B,B. subtilis; also recorded: B. fragilis; also recorded: E. coli; also recorded: P. aeruginosa; also recorded: C. jeikeium,–,–,–,MRSA (M),S. epidermidis (M),–,–,–,–,–,–,–,–
PF-381 (QGANPCQQVGFTVNDPDCRLAKTV; Peptide with targeting and/or antimicrobial activity),G B,E. coli; also recorded: P. aeruginosa; also recorded: C. jejuni,–,E. coli (R),E. faecalis (C),MRSA (C),S. epidermidis (C),–,–,–,–,–,–,–,–
PF-382 (KYKCSWCKRVYTLRKDHKTAR; Peptide with targeting and/or antimicrobial activity),G B,S. epidermidis; also recorded: B. subtilis; also recorded: B. fragilis; also recorded: E. coli; also recorded: P. aeruginosa; also recorded: E. faecalis; also recorded: C. jeikeium; also recorded: C. jejuni,–,–,–,MRSA (M),–,–,–,–,–,–,–,–,–
PF-383 (WSEIEINTKQSN; Peptide with targeting and/or antimicrobial activity),G B,S. epidermidis; also recorded: B. subtilis; also recorded: B. fragilis; also recorded: E. coli; also recorded: C. jejuni,–,E. coli (R),–,–,S. epidermidis (C),–,–,–,–,–,–,–,–
PF-385 (MIKKSILKIKYYVPVLISLTLILSA; Peptide with targeting and/or antimicrobial activity),G B,–,–,E. coli (A),–,–,–,–,S. epidermidis; also recorded: E. coli; also recorded: P. aeruginosa; also recorded: C. albicans; also recorded: E. faecalis,–,–,–,–,–,–
PF-389 (GLQFKEIAEEFHITTTALQQWHKDNGYPIYNKNNRK; Peptide with targeting and/or antimicrobial activity),G B,–,C. jejuni (R),–,E. faecalis (R),MRSA (C),S. epidermidis (R),S. pneumoniae (D),S. epidermidis and C. albicans and MRSA and S. pneumoniae and E. faecalis and C. jeikeium,–,–,–,–,–,–
PF-390 (VVAYVITQVGAIRF; Peptide with targeting and/or antimicrobial activity),G B,–,C. jejuni (D),E. coli (C),E. faecalis (D),MRSA (D),S. epidermidis (D),S. pneumoniae (D),S. epidermidis and P. aeruginosa and C. albicans and MRSA,–,–,–,–,–,–
PF-392 (DPAGCNDIVRKYCK; Peptide with targeting and/or antimicrobial activity),G B,–,C. jejuni (A),–,E. faecalis (A),MRSA (S),–,–,S. epidermidis; also recorded: B. subtilis; also recorded: S. pneumoniae; also recorded: C. jeikeium; also recorded: C. jejuni,–,–,–,–,–,–
PF-393 (DLVQSILSEFKKSG; Peptide with targeting and/or antimicrobial activity),G B,–,C. jejuni (R),–,E. faecalis (A),MRSA (C),S. epidermidis (R),S. pneumoniae (R),S. epidermidis and E. coli and C. albicans and MRSA and S. pneumoniae and C. jejuni,–,–,–,–,–,–
PF-394 (VLKEECYQKN; Peptide with targeting and/or antimicrobial activity),G B,–,–,–,E. faecalis (A),MRSA (C),–,–,S. epidermidis and MRSA and C. jejuni,–,–,–,–,–,–
PF-422 (MSRKKYENDEKSQKKLKIGRKSDVFYGIID; Peptide with targeting and/or antimicrobial activity),G B,–,–,–,–,–,–,–,C. albicans and MRSA and C. jeikeium,C. jejuni (R),E. faecalis (R),MRSA (C),S. epidermidis (R),S. pneumoniae (C),–
PF-444 (MAAKLWEEGKMVYASSASMTKRLKLAMSKV; Peptide with targeting and/or antimicrobial activity),G B,–,–,–,–,–,–,–,M. luteus; also recorded: C. albicans; also recorded: S. pneumoniae; also recorded: C. jeikeium,–,E. faecalis (C),MRSA (C),S. epidermidis (C),S. pneumoniae (R),E. coli (R)
PF-445 (ASMTKRLKLAMSKV; Peptide with targeting and/or antimicrobial activity),G B,–,–,–,–,–,–,–,M. luteus; also recorded: S. pneumoniae; also recorded: C. jeikeium,–,–,–,–,S. pneumoniae (M),–
PF-446 (SGNEKV; Peptide with targeting and/or antimicrobial activity),G B,–,–,–,–,–,–,–,M. luteus; also recorded: C. jeikeium,–,–,–,–,S. pneumoniae (H),–
PF-447 (IDKSRNKDQFSHIFGLYNICSG; Peptide with targeting and/or antimicrobial activity),G B,–,–,–,–,–,–,–,S. epidermidis; also recorded: M. luteus; also recorded: E. coli; also recorded: S. pneumoniae,–,E. faecalis (C),MRSA (C),S. epidermidis (C),S. pneumoniae (C),–

# From US9597407B2, “Targeted antimicrobial moieties” (C3 Jian, Inc., priority 2009, dated 2017)
